Converted amounts (≈) assume the structure as drawn.
Experiments:
[1] = system: Staphylococcus aureus (ATCC25923); assay: MIC, broth microdilution (CLSI), Staphylococcus aureus ATCC25923; details: ATCC25923, read-out: S. aureus ("Clinical") MIC
[2] = system: Escherichia coli (ATCC25922); assay: MIC, broth microdilution (CLSI), Escherichia coli ATCC25922; details: ATCC25922, read-out: E. coli MIC, Table 15, NI = No inhibition
[3] = system: E. coli RNase P RNA, M1 RNA; assay: Inhibition of bacterial RNase P activity, IC50 determination (cleavage of pATSerUG by M1 RNA); type: biochemical; details: NI = No inhibition

`NCCN1CCC(Nc2cc(C(F)(F)F)cc3c2Nc2ccc(Cl)cc2S3)CC1` [compound 226, N-(1-(2-Aminoethyl)piperidin-4-yl)-7-chloro-3-(trifluoromethyl)-10H-phenothiazin-1-amine] showed an MIC [1] of 4 µg/mL (≈ 9.03 µM), an MIC [2] of 14 µg/mL (≈ 31.6 µM) and an IC50 [3] of 23 µM.

Work on `N[C@H]1CCC[C@H](CNc2cc(C(F)(F)F)cc3c2Nc2ccccc2S3)C1.O=C(O)C(F)(F)F` [compound 187, N-(((1S,3S)-3-aminocyclohexyl)methyl)-3-(trifluoromethyl)-10H-phenothiazin-1-amine 2,2,2-trifluoroacetate] yielded an MIC [1] of 4 µg/mL, an MIC [2] of 16 µg/mL and an IC50 [3] of 53 µM.

Work on `CN(C)CCCN1c2ccccc2Sc2cc(C3CC3)ccc21` [compound 116, 3-(3-cyclopropyl-10H-phenothiazin-10-yl)-N,N-dimethylpropan-1-amine] yielded an MIC [1] of 42 µg/mL (≈ 129 µM), an MIC [2] greater than 100 µg/mL and an IC50 [3] greater than 100 µM.

`COc1cc(-c2ccc3c(c2)Sc2ccccc2N3CCCN(C)C)ccn1` [compound 153, 3-(3-(2-methoxypyridin-4-yl)-10H-phenothiazin-10-yl)-N,N-dimethylpropan-1-amine] was tested, and the MIC [1] was 25 µg/mL (≈ 63.9 µM), the MIC [2] was greater than 100 µg/mL and the IC50 [3] was greater than 100 µM.

Work on `CN(C)CCCN1c2ccccc2Sc2cc(-c3nc4ccccc4s3)ccc21` [compound 143, 3-(3-(Benzo[d]thiazol-2-yl)-10H-phenothiazin-10-yl)-N,N-dimethylpropan-1-amine] yielded an MIC [1] of 3 µg/mL (≈ 7.18 µM), an MIC [2] greater than 100 µg/mL and an IC50 [3] greater than 100 µM.

`NCC1CCCC(C(=O)Nc2cc(C(F)(F)F)cc3c2Nc2ccccc2S3)C1` (stereo not drawn) [compound 149, 3-(aminomethyl)-N-(3-(trifluoromethyl)-10H-phenothiazin-1-yl)cyclohexane-carboxamide] showed an MIC [1] of 13 µg/mL (≈ 30.8 µM), an MIC [2] of 54 µg/mL (≈ 128 µM) and an IC50 [3] of 15 µM.

For `NC1CCC(C(=O)Nc2cc(C(F)(F)F)cc3c2Nc2ccccc2S3)CC1` (stereo not drawn) [compound 95, 4-amino-N-(3-(trifluoromethyl)-10H-phenothiazin-1-yl)cyclohexane-carboxamide], the MIC [1] was 32 µg/mL (≈ 78.5 µM), the MIC [2] was 64 µg/mL (≈ 157 µM) and the IC50 [3] was 94 µM.

`O=C(Nc1cc(C(F)(F)F)cc2c1Nc1ccccc1S2)C1CCCNC1` (stereo not drawn) [compound 91, N-(3-(trifluoromethyl)-10H-phenothiazin-1-yl)piperidine-3-carboxamide] was tested, and the MIC [1] was 8 µg/mL (≈ 20.3 µM), the MIC [2] was 32 µg/mL (≈ 81.3 µM) and the IC50 [3] was greater than 100 µM.

`NCCNC1CCCC(C(=O)Nc2cc(C(F)(F)F)cc3c2Nc2ccccc2S3)C1` (stereo not drawn) [compound 163, 3-((2-aminoethyl)amino)-N-(3-(trifluoromethyl)-10H-phenothiazin-1-yl)cyclohexane-carboxamide] showed an MIC [1] of 14 µg/mL (≈ 31.1 µM), an MIC [2] of 14 µg/mL (≈ 31.1 µM) and an IC50 [3] of 72 µM.

`NC1CCC(CNc2cc(C(F)(F)F)cc3c2Nc2ccccc2S3)CC1` (stereo not drawn) [compound 108, N-((4-aminocyclohexyl)methyl)-3-(trifluoromethyl)-10H-phenothiazin-1-amine] was tested, and the MIC [1] was 8 µg/mL (≈ 20.3 µM), the MIC [2] was 32 µg/mL (≈ 81.3 µM) and the IC50 [3] was greater than 100 µM.

`N[C@@H]1CCC[C@@H](CNc2cc(C(F)(F)F)cc3c2Nc2ccccc2S3)C1` [compound 171, N-(((1R,3R)-3-aminocyclohexyl)methyl)-3-(trifluoromethyl)-10H-phenothiazin-1-amine] was tested, and the MIC [1] was 3 µg/mL (≈ 7.62 µM), the MIC [2] was 13 µg/mL (≈ 33 µM) and the IC50 [3] was 42 µM.

`CNCCN1CCC(Nc2cc(CN)cc3c2Nc2ccccc2S3)CC1.O=C(O)C(F)(F)F` [compound 224, 3-(aminomethyl)-N-(1-(2-(methylamino)ethyl)piperidin-4-yl)-10H-phenothiazin-1-amine 2,2,2-trifluoroacetate salt] showed an MIC [1] of 64 µg/mL, an MIC [2] of 64 µg/mL and an IC50 [3] of 68 µM.

`NCCCN1c2ccccc2Sc2cc(-c3cc4ccccc4n3CCN)ccc21.O=C(O)C(F)(F)F.O=C(O)C(F)(F)F` [compound 222, 3-(3-(1-(2-aminoethyl)-1H-indol-2-yl)-10H-phenothiazin-10-yl)propan-1-amine bis(2,2,2-trifluoroacetate) salt] gave an MIC [1] of 3 µg/mL, an MIC [2] of 5 µg/mL and an IC50 [3] of 18 µM.

— US11130741B2 (Bioimics AB, priority 2016, dated 2021)
